From US20250152574A1 (BIOGEN MA INC., priority 2022, published 2025)
pIC50: −log10 of the molar value.

Molecular target: T1, EBP (Homo sapiens, UniProt Q15125)
T1 construct: HEK293T cells were utilized as the source of EBP enzyme; endogenous in cells; host or cells: HEK293T
Test: EBP Functional Assay (EBP immunoaffinity LC-MS assay)
Assay type: biochemical
Conditions: HEK293T cells as source of EBP enzyme; substrate zymosterol-d5, 37° C. for 4 h; percent conversion to dehydrolathosterol-d5 by LC-APCI MRM MS
In short: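 IC50 comes from a 4-parameter logistic fit of zymosterol-d5-to-product percent conversion, measured by LC-APCI MRM MS after sterol extraction. Compounds were preincubated 30 min with EBP from HEK293T cells before deuterated substrate was added for 4 h at 37° C; Tasin-1 served as reference.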

T1 sequence (Q15125 whole entry): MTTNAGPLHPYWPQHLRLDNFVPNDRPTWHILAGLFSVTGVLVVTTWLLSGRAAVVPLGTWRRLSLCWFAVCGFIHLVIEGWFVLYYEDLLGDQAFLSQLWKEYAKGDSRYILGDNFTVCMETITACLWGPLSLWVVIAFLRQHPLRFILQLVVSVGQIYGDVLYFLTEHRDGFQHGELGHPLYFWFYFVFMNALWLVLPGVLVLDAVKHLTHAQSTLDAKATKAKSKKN

pIC50	Compound
6.60 to 7.00	CC(C)Oc1ccc(S(=O)(=O)N2CCC3(CCC(N4CC5(COC5)C4)C3)CC2)cn1 (centres unmarked) [Example 130, 6-(8-((6-isopropoxypyridin-3-yl)sulfonyl)-8-azaspiro[4.5]decan-2-yl)-2-oxa-6-azaspiro[3.3]heptane]
6.60 to 7.00	COCCNC1COC2(CCN(S(=O)(=O)c3cc(C)cnc3OC)CC2)C1 (centres unmarked) [Example 65, 8-((2-Methoxy-5-methylpyridin-3-yl)sulfonyl)-N-(2-methoxyethyl)-1-oxa-8-azaspiro[4.5]decan-3-amine]
> 7.00	COc1nccc(S(=O)(=O)N2CCC3(CCC(N4CCOCC4)C3)CC2)c1F (centres unmarked) [Example 33, 4-(8-((3-Fluoro-2-methoxypyridin-4-yl)sulfonyl)-8-azaspiro[4.5]decan-2-yl)morpholine]
6.60 to 7.00	Cc1cc(S(=O)(=O)N2CCC3(CCC(N4CCC(C)(O)CC4)C3)CC2)n(C)n1 (centres unmarked) [Example 84, 1-(8-((1,3-dimethyl-1H-pyrazol-5-yl)sulfonyl)-8-azaspiro[4.5]decan-2-yl)-4-methylpiperidin-4-ol]
5.82 to 6.60	Cc1cc(C)c(S(=O)(=O)N2CCC3(CC2)CC(N2CCC4(CCOC4)C2)CO3)cn1 (centres unmarked) [Example 28, 8-((4,6-Dimethylpyridin-3-yl)sulfonyl)-3-(2-oxa-7-azaspiro[4.4]nonan-7-yl)-1-oxa-8-azaspiro[4.5]decane]
5.82 to 6.60	N#Cc1ccc(Cl)c(S(=O)(=O)N2CCC3(CC2)CC(N2CC4(COC4)C2)CO3)c1 (centres unmarked) [Example 64, 3-((3-(2-Oxa-6-azaspiro[3.3]heptan-6-yl)-1-oxa-8-azaspiro[4.5]decan-8-yl)sulfonyl)-4-chlorobenzonitrile]
6.60 to 7.00	N#Cc1ccc(S(=O)(=O)N2CCC3(CCC(N4CC5(COC5)C4)C3)CC2)c(Cl)c1 (centres unmarked) [Example 126, 4-((2-(2-oxa-6-azaspiro[3.3]heptan-6-yl)-8-azaspiro[4.5]decan-8-yl)sulfonyl)-3-chlorobenzonitrile]
> 7.00	O=S(=O)(c1ccc(OC(F)F)cc1)N1CCC2(CCC(N3C[C@H]4C[C@@H]3CO4)C2)CC1 (stereo partly drawn) [Example 27, (1R,4R)-5-(8-((4-(Difluoromethoxy)phenyl)sulfonyl)-8-azaspiro[4.5]decan-2-yl)-2-oxa-5-azabicyclo[2.2.1]heptane]
